Legend:
Experiment in all cases: relative viability (nuclei count vs DMSO), 5 days (fraction); higher = more cells survive
[1] = compound: CCn1c(-c2nonc2N)nc2cnc(Oc3cccc(NC(=O)c4ccc(OCCN5CCOCC5)cc4)c3)cc21 + CS(=O)(=O)CCNCc1ccc(-c2ccc3ncnc(Nc4ccc(OCc5cccc(F)c5)c(Cl)c4)c3c2)o1 [Lapatinib] (partner 2 µM)
Method in brief: (§1)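 Cells from lung cancer lines were seeded into 1536-well plates and, one day later, dosed by pin tool. Treatments were either a single drug or a fixed dose of an anchor drug with five library-drug doses (not always all listed) in √10 steps. After 5 days, nuclei were stained in a one-step fixation (final 0.05% Triton X-100, 1% formaldehyde, 1 ug/ml Hoechst) and counted on 4× images, and relative viability is the treated-to-vehicle nuclei ratio, as the median of duplicate plates.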

[2] = compound: N=C1NC(=O)/C(=C/c2ccc(O)cc2)S1 [Mirin] + Cc1nc(Nc2ncc(C(=O)Nc3c(C)cccc3Cl)s2)cc(N2CCN(CCO)CC2)n1 [Dasatinib] (partner 0.075 µM)
Method in brief: as §1

[3] = compound: CCn1c(-c2nonc2N)nc2cnc(Oc3cccc(NC(=O)c4ccc(OCCN5CCOCC5)cc4)c3)cc21 + C[C@@H](Oc1cc(-c2cnn(C3CCNCC3)c2)cnc1N)c1c(Cl)ccc(F)c1Cl [Crizotinib] (partner 1 µM)
Method in brief: as §1

Row | Cell Line | relative viability ([1]; first compound 0.04 µM) | relative viability ([1]; first compound 0.1265 µM) | relative viability ([1]; first compound 0.4 µM) | relative viability ([1]; first compound 1.265 µM) | relative viability ([1]; first compound 4 µM) | relative viability ([2]; first compound 0.25 µM) | relative viability ([2]; first compound 2.5 µM) | relative viability ([2]; first compound 7.906 µM) | relative viability ([2]; first compound 25 µM) | relative viability ([3]; first compound 0.04 µM) | relative viability ([3]; first compound 0.1265 µM) | relative viability ([3]; first compound 0.4 µM) | relative viability ([3]; first compound 1.265 µM) | relative viability ([3]; first compound 4 µM) | relative viability ([2]; first compound 0.7906 µM)
1 | LK-2 | 1.2 | 0.95 | 0.605 | 0.706 | 0.949 | 0.275 | 0.272 | 0.194 | 0.178 | 0.222 | 0.236 | 0.264 | 0.242 | 0.176 | 
2 | HCC-15 | 0.962 | 0.736 | 0.779 | 0.628 | 0.745 | 0.608 | 0.599 | 0.632 | 0.404 | 0.961 | 0.746 | 0.723 | 0.75 | 0.772 | 0.655
3 | NCI-H838 | 0.804 | 0.485 | 0.323 | 0.281 | 0.261 | 0.275 | 0.309 | 0.394 | 0.346 | 0.725 | 0.427 | 0.466 | 0.272 | 0.228 | 0.277
4 | HOP-62 | 1.16 | 1.02 | 0.996 | 0.866 | 0.461 | 0.699 | 0.743 | 0.671 | 0.56 | 0.972 | 0.86 | 0.951 | 0.931 | 0.755 | 0.756
5 | NCI-H322M | 0.572 | 0.659 | 0.437 | 0.876 | 0.783 | 0.264 | 0.246 | 0.268 | 0.244 | 1.28 | 0.976 | 0.96 | 0.953 | 0.922 | 0.258
6 | NCI-H650 | 1.29 | 0.686 | 0.5 | 0.269 | 0.472 | 0.455 | 0.397 |  | 0.506 | 0.838 | 0.758 | 0.432 | 0.388 | 0.339 | 0.391
7 | NCI-H661 | 0.47 | 0.457 | 0.457 | 0.39 | 0.385 | 0.985 | 0.884 | 0.734 | 0.697 | 0.993 | 1.05 | 1.13 | 0.694 | 0.86 | 0.737
8 | EKVX | 0.446 | 0.221 | 0.177 | 0.197 | 0.229 | 0.671 | 0.565 | 0.494 | 0.564 | 1.14 | 0.994 | 0.893 | 0.724 | 0.788 | 
9 | NCI-H520 | 1 | 0.897 | 0.632 | 0.385 | 0.312 | 0.192 | 0.282 | 0.172 | 0.249 | 0.957 | 0.784 | 0.751 | 0.565 | 0.371 | 0.164
10 | LCLC-97TM1 | 1.78 | 1.54 |  | 1.74 | 1 | 0.773 | 0.868 | 0.737 | 0.765 | 0.278 | 0.524 |  | 0.427 | 0.596 | 0.816
11 | COR-L23 | 1.16 | 0.714 | 0.335 | 0.198 | 0.143 | 0.55 | 0.534 | 0.553 | 0.524 | 0.598 | 0.341 | 0.329 | 0.133 | 0.107 | 0.563
12 | NCI-H1355 | 1.07 | 0.978 | 0.712 | 0.62 | 0.597 | 0.766 | 0.691 | 0.564 | 0.648 | 1.16 | 1.11 | 1.18 | 1.01 | 1.01 | 0.724
13 | NCI-H1666 | 0.792 | 0.777 | 0.592 | 0.498 | 0.329 | 0.93 | 0.846 | 0.709 | 0.681 | 1.21 | 1.2 | 1.23 | 0.726 | 0.372 | 0.807
14 | EPLC-272H | 1.46 | 0.903 | 0.796 | 0.187 | 0.827 | 0.416 | 0.413 | 0.301 | 0.232 | 1.24 | 1.12 | 0.83 | 0.871 | 0.932 | 

— the supplement of paper PMC10307832
